Species: Rattus norvegicus
Experiment: Open TG-GATES - Regimen: Single
Format: toxicity, organism-based, Sprague-Dawley
Parameters: regimen Single, gender Male, age 6 weeks
Settings: in vivo, po, 100 mg/kg, route gavage, dose level Middle; for APTT / Bas / Eos / Fbg / Hb / Ht / Lym / MCH / MCHC / MCV / Mono / Neu / PT / Plat / RBC / Ret / WBC: tissue Blood; for KIDNEY_L / KIDNEY_R / KIDNEY_TOTAL: tissue Kidney; for LIVER: tissue Liver; for A/G / ALP / ALT / AST / BUN / CRE / Ca / Cl / DBIL / GLC / IP / K / LDH / Na / PL / RALB / TBIL / TC / TG / TP / gamma-GTP: tissue Plasma

ClC(Cl)(Cl)Cl [CARBON TETRACHLORIDE]
TERMINAL_BW (3 h): 207.5 g
APTT (3 h): 20.3 s
Bas (3 h): 0%
Eos (3 h): 1%
Fbg (3 h): 222.4 mg/dL
Hb (3 h): 12.7 g/dL
Ht (3 h): 36.6%
Lym (3 h): 76.4%
MCH (3 h): 21.8 pg
MCHC (3 h): 34.8%
MCV (3 h): 62.7 fL
Mono (3 h): 2.8%
Neu (3 h): 19.8%
PT (3 h): 12.6 s
Plat (3 h): 129.7 x10_4/uL
RBC (3 h): 583.2 x10_4/ul
Ret (3 h): 8.7%
WBC (3 h): 76.6 x10_2/uL
KIDNEY_L (3 h): 0.9 g
KIDNEY_R (3 h): 0.9 g
KIDNEY_TOTAL (3 h): 1.8 g
LIVER (3 h): 9.4 g
A/G (3 h): 1.7
ALP (3 h): 1077.4 IU/L
ALT (3 h): 36.2 IU/L
AST (3 h): 70 IU/L
BUN (3 h): 10.2 mg/dL
CRE (3 h): 0.4 mg/dL
Ca (3 h): 10.8 mg/dL
Cl (3 h): 104.6 meq/L
DBIL (3 h): 0.1 mg/dL
GLC (3 h): 186.4 mg/dL
IP (3 h): 9.4 mg/dL
K (3 h): 3.9 meq/L
LDH (3 h): 156 IU/L
Na (3 h): 140.2 meq/L
PL (3 h): 148.6 mg/dL
RALB (3 h): 3.4 g/dL
TBIL (3 h): 0.2 mg/dL
TC (3 h): 73.6 mg/dL
TG (3 h): 103.8 mg/dL
TP (3 h): 5.4 g/dL
gamma-GTP (3 h): 1.2 IU/L
TERMINAL_BW (6 h): 204.2 g
APTT (6 h): 18 s
Bas (6 h): 0%
Eos (6 h): 1%
Fbg (6 h): 224.8 mg/dL
Hb (6 h): 13.3 g/dL
Ht (6 h): 38.1%
Lym (6 h): 71.2%
MCH (6 h): 21.8 pg
MCHC (6 h): 35%
MCV (6 h): 62.4 fL
Mono (6 h): 3%
Neu (6 h): 24.8%
PT (6 h): 12.7 s
Plat (6 h): 134.8 x10_4/uL
RBC (6 h): 611 x10_4/ul
Ret (6 h): 8.8%
WBC (6 h): 76 x10_2/uL
KIDNEY_L (6 h): 0.9 g
KIDNEY_R (6 h): 0.9 g
KIDNEY_TOTAL (6 h): 1.8 g
LIVER (6 h): 9 g
A/G (6 h): 1.8
ALP (6 h): 913.2 IU/L
ALT (6 h): 35 IU/L
AST (6 h): 65.6 IU/L
BUN (6 h): 11.4 mg/dL
CRE (6 h): 0.4 mg/dL
Ca (6 h): 10.5 mg/dL
Cl (6 h): 104 meq/L
DBIL (6 h): 0.1 mg/dL
GLC (6 h): 190.2 mg/dL
IP (6 h): 10.2 mg/dL
K (6 h): 3.9 meq/L
LDH (6 h): 164.6 IU/L
Na (6 h): 140.2 meq/L
PL (6 h): 154.4 mg/dL
RALB (6 h): 3.5 g/dL
TBIL (6 h): 0.2 mg/dL
TC (6 h): 78.8 mg/dL
TG (6 h): 67.2 mg/dL
TP (6 h): 5.4 g/dL
gamma-GTP (6 h): 1.4 IU/L
TERMINAL_BW (9 h): 205.2 g
APTT (9 h): 18.5 s
Bas (9 h): 0%
Eos (9 h): 0.8%
Fbg (9 h): 229.8 mg/dL
Hb (9 h): 12.9 g/dL
Ht (9 h): 37%
Lym (9 h): 74.2%
MCH (9 h): 21.2 pg
MCHC (9 h): 34.8%
MCV (9 h): 60.8 fL
Mono (9 h): 3%
Neu (9 h): 21.8%
PT (9 h): 12.5 s
Plat (9 h): 125.2 x10_4/uL
RBC (9 h): 610.4 x10_4/ul
Ret (9 h): 8%
WBC (9 h): 72.7 x10_2/uL
KIDNEY_L (9 h): 0.9 g
KIDNEY_R (9 h): 0.9 g
KIDNEY_TOTAL (9 h): 1.8 g
LIVER (9 h): 8.4 g
A/G (9 h): 1.6
ALP (9 h): 848.2 IU/L
ALT (9 h): 28.2 IU/L
AST (9 h): 62.4 IU/L
BUN (9 h): 11.4 mg/dL
CRE (9 h): 0.4 mg/dL
Ca (9 h): 10.5 mg/dL
Cl (9 h): 103.6 meq/L
DBIL (9 h): 0.1 mg/dL
GLC (9 h): 196 mg/dL
IP (9 h): 10.3 mg/dL
K (9 h): 3.7 meq/L
LDH (9 h): 173.2 IU/L
Na (9 h): 140.4 meq/L
PL (9 h): 141.2 mg/dL
RALB (9 h): 3.3 g/dL
TBIL (9 h): 0.2 mg/dL
TC (9 h): 66.6 mg/dL
TG (9 h): 65 mg/dL
TP (9 h): 5.5 g/dL
gamma-GTP (9 h): 0.8 IU/L
TERMINAL_BW (24 h): 210.9 g
APTT (24 h): 18.9 s
Bas (24 h): 0%
Eos (24 h): 1%
Fbg (24 h): 229.8 mg/dL
Hb (24 h): 13.6 g/dL
Ht (24 h): 39.4%
Lym (24 h): 79.4%
MCH (24 h): 21.8 pg
MCHC (24 h): 34.5%
MCV (24 h): 63 fL
Mono (24 h): 3.4%
Neu (24 h): 15.8%
PT (24 h): 12.6 s
Plat (24 h): 126.7 x10_4/uL
RBC (24 h): 625.2 x10_4/ul
Ret (24 h): 8.6%
WBC (24 h): 98.1 x10_2/uL
KIDNEY_L (24 h): 0.9 g
KIDNEY_R (24 h): 0.9 g
KIDNEY_TOTAL (24 h): 1.8 g
LIVER (24 h): 10.1 g
A/G (24 h): 1.7
ALP (24 h): 987 IU/L
ALT (24 h): 38.2 IU/L
AST (24 h): 70.2 IU/L
BUN (24 h): 16.8 mg/dL
CRE (24 h): 0.4 mg/dL
Ca (24 h): 10.8 mg/dL
Cl (24 h): 104.4 meq/L
DBIL (24 h): 0.082 mg/dL
GLC (24 h): 189.4 mg/dL
IP (24 h): 8.1 mg/dL
K (24 h): 4.1 meq/L
LDH (24 h): 280 IU/L
Na (24 h): 140.4 meq/L
PL (24 h): 148.2 mg/dL
RALB (24 h): 3.5 g/dL
TBIL (24 h): 0.1 mg/dL
TC (24 h): 70.4 mg/dL
TG (24 h): 78 mg/dL
TP (24 h): 5.6 g/dL
gamma-GTP (24 h): 1 IU/L

From ChEMBL document CHEMBL3885861, “Open TG-GATES”
